Measured values published in the supplement of paper PMC5908809.

Tests used:
[1] = system: normal NK cells expanded with K562-aAPC; experiment: percent inhibition of viability; higher = more inhibition; conditions: 72 h, IL-2 2.5 ng/mL
Procedure: (§1)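 Drug sensitivity and resistance testing on K562-aAPC-expanded normal NK cells: 5 concentrations (10-fold steps over a 10,000-fold range), 72 h at 37 °C, viability by CellTiter-Glo normalised to DMSO and benzethonium chloride controls; DSS from the fitted curve.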

[2] = system: DERL-7 (IL-2 2.5 ng/mL); experiment: as above; conditions: 72 h
[3] = system: IMC-1 (IL-2 20 ng/mL); experiment: as above; conditions: 72 h
[4] = system: KAI3 (IL-2 2.5 ng/mL); experiment: as above; conditions: 72 h
[5] = system: KHYG-1 (IL-2 2.5 ng/mL); experiment: as above; conditions: 72 h
[6] = system: NK-92 (IL-2 2.5 ng/mL); experiment: as above; conditions: 72 h
[7] = system: NK-YS (IL-2 2.5 ng/mL); experiment: as above; conditions: 72 h
[8] = system: NKL (IL-2 2.5 ng/mL); experiment: as above; conditions: 72 h
[9] = system: SNK-6 (IL-2 2.5 ng/mL); experiment: as above; conditions: 72 h
[10] = system: YT (IL-2 2.5 ng/mL); experiment: as above; conditions: 72 h
[11] = system: normal primary NK cells, pool 1 (3 donors) (IL-2 2.5 ng/mL); experiment: as above; conditions: 72 h
[12] = system: normal primary NK cells, pool 1 (3 donors), resting (IL-2 0 ng/mL); experiment: as above; conditions: 72 h
[13] = system: normal primary NK cells, pool 2 (3 donors) (IL-2 2.5 ng/mL); experiment: as above; conditions: 72 h
[14] = system: normal primary NK cells, pool 3 (3 donors) (IL-2 2.5 ng/mL); experiment: as above; conditions: 72 h
[15] = system: normal NK cells expanded with K562-aAPC; experiment: drug sensitivity score (DSS) (DSS units); higher = more sensitive; extreme values may be limits of the assay; conditions: 72 h; IL-2 2.5 ng/mL
Procedure: as §1

[16] = system: DERL-7 (IL-2 2.5 ng/mL); experiment: as above; conditions: 72 h
[17] = system: IMC-1 (IL-2 20 ng/mL); experiment: as above; conditions: 72 h
[18] = system: KAI3 (IL-2 2.5 ng/mL); experiment: as above; conditions: 72 h
[19] = system: KHYG-1 (IL-2 2.5 ng/mL); experiment: as above; conditions: 72 h
[20] = system: NK-92 (IL-2 2.5 ng/mL); experiment: as above; conditions: 72 h
[21] = system: NK-YS (IL-2 2.5 ng/mL); experiment: as above; conditions: 72 h
[22] = system: NKL (IL-2 2.5 ng/mL); experiment: as above; conditions: 72 h
[23] = system: SNK-6 (IL-2 2.5 ng/mL); experiment: as above; conditions: 72 h
[24] = system: YT (IL-2 2.5 ng/mL); experiment: as above; conditions: 72 h
[25] = system: normal primary NK cells, pool 1 (3 donors) (IL-2 2.5 ng/mL); experiment: as above; conditions: 72 h
[26] = system: normal primary NK cells, pool 1 (3 donors), resting (IL-2 0 ng/mL); experiment: as above; conditions: 72 h
[27] = system: normal primary NK cells, pool 2 (3 donors) (IL-2 2.5 ng/mL); experiment: as above; conditions: 72 h
[28] = system: normal primary NK cells, pool 3 (3 donors) (IL-2 2.5 ng/mL); experiment: as above; conditions: 72 h

COc1cc2ncnc(Nc3ccc(F)c(Cl)c3)c2cc1OCCCN1CCOCC1 [Gefitinib] (max concentration tested 10000 nM)
percent inhibition of viability [%]
Conditions | 1 nM | 10 nM | 100 nM | 1000 nM | 10000 nM
[1] | -4.93 | -2.95 | -4.74 | 12.3 | 56.2
[2] | 3.62 | -2.09 | 5.77 | 1.47 | 70.4
[3] | -4.89 | 1.4 | 2.3 | 2.27 | 13.5
[4] | 0.49 | -0.54 | -4.64 | 11.8 | 56.9
[5] | -2.54 | 5.78 | 8.11 | 9.75 | 89.9
[6] | -2.12 | 5.54 | -3.03 | 4.12 | 64.8
[7] | -1.51 | 1.15 | 7.36 | 7.9 | 30.8
[8] | -4.33 | -6.47 | -2.03 | 12 | 62.4
[9] | 25.8 | 34.7 | 27.6 | 9.98 | 42.4
[10] | -3.09 | 5.08 | 4.23 | 5.38 | 57.6
[11] | -0.53 | -12.4 | -3.97 | -11.3 | 26.3
[12] | -4.9 | -15.9 | -4.48 | -7.6 | 64.4
[13] | -22.1 | -19.1 | 6.35 | 2.61 | 39.1
[14] | -15.3 | -8.24 | 11.2 | -13.2 | 40.1

Conditions | drug sensitivity score
[15] | 5.01
[16] | 4.07
[17] | 0.3
[18] | 4.99
[19] | 6.6
[20] | 4.15
[21] | 2.2
[22] | 5.38
[23] | 9.38
[24] | 3.98
[25] | 0.66
[26] | 3
[27] | 2.32
[28] | 1.42

COc1cc(Nc2ncc3c(n2)-c2ccc(Cl)cc2C(c2c(F)cccc2OC)=NC3)ccc1C(=O)O [Alisertib] (max concentration tested 10000 nM)
percent inhibition of viability [%]
Conditions | 1 nM | 10 nM | 100 nM | 1000 nM | 10000 nM
[1] | -8.29 | -10.5 | 39 | 46 | 63.8
[2] | 3.14 | 3.32 | 73.9 | 65.1 | 72.8
[3] | -9.95 | 3 | 42.5 | 76.7 | 88
[4] | -7.42 | 6.5 | 38.4 | 56.8 | 73
[5] | -6.82 | 13.3 | 62.3 | 82.9 | 90.3
[6] | -1.61 | 21.5 | 53.4 | 63.6 | 77.1
[7] | -8.82 | 18.6 | 67.4 | 75.4 | 71.3
[8] | -15.7 | -12.7 | 54.1 | 31.1 | 62.9
[9] | -9.82 | 4.71 | 73.7 | 81.3 | 84.4
[10] | -1.37 | 10.7 | 43.4 | 32.9 | 60.8
[11] | -6.59 | 4.27 | 6.91 | 0.99 | 12.4
[12] | 4.36 | 18.6 | 7.69 | 21.1 | 47.6
[13] | -1.45 | -4.51 | 12.5 | 7.67 | 29.6
[14] | 4.24 | -4.25 | 17.1 | 4.71 | 23

Conditions | drug sensitivity score
[15] | 16.4
[16] | 23.4
[17] | 19.8
[18] | 16
[19] | 24.4
[20] | 21.1
[21] | 24.5
[22] | 17.9
[23] | 24.9
[24] | 13.6
[25] | 0
[26] | 5.81
[27] | 1.95
[28] | 1.41

Cc1cc(Nc2cc(CN3CCOCC3)c3nc(C)c(Cc4ccc(Cl)cc4F)n3n2)n[nH]1 [Gandotinib] (max concentration tested 10000 nM)
percent inhibition of viability [%]
Conditions | 1 nM | 10 nM | 100 nM | 1000 nM | 10000 nM
[1] | -0.65 | 3.87 | 25.1 | 89.6 | 70.5
[2] | 2.64 | 12.5 | 31.3 | 96.2 | 100
[3] | -4.23 | -6.96 | -22.2 | 36.1 | 99.6
[4] | 8.43 | 12.9 | 45.1 | 92.9 | 82.2
[5] | 0.26 | 6.43 | 45.7 | 106 | 95.9
[6] | 4.87 | 11.2 | 20.5 | 86.5 | 96.2
[7] | 1.47 | 2.64 | 22.9 | 77.5 | 93.6
[8] | -9.53 | -6.03 | 52.5 | 77.8 | 71.9
[9] | 6.62 | 7.51 | 9.98 | 95 | 87.1
[10] | 1.95 | -0.29 | 5.49 | 77.5 | 94.8
[11] | -11.8 | -7.74 | 18.1 | 58.3 | 79.4
[12] | -20.1 | -7.1 | 2.98 | -45.4 | 20.2
[13] | -11.3 | -5.04 | 11.2 | 50.9 | 52.6
[14] | -10.9 | -0.67 | 2.59 | 43.9 | 65.9

Conditions | drug sensitivity score
[15] | 20
[16] | 21
[17] | 10.4
[18] | 22
[19] | 23.9
[20] | 18.3
[21] | 17.1
[22] | 20.4
[23] | 18.8
[24] | 15
[25] | 13
[26] | 0.18
[27] | 11.1
[28] | 8.97
